Test results as given in patent US6683105B2 (priority 1997, dated 2004).
“Also recorded” adds a separate entry of the source.

How the values were obtained:
[1] = test system: βAPP secretion, glioblastoma, HeLa, neuroblastoma and PCI2 cell lines; conditions: neuronal cells treated with cholinesterase inhibitors; cited from earlier work
[2] = test system: aged Fischer-344 (F344) rats; assay: 14-unit T-maze (Stone maze) learning; assay type: in vivo, rat
Text: In the present study we assessed the effects of chronic cymserine treatment (5 days) on performance of aged Fischer-344 (F344) rats (21-22 months old) in a 14-unint T-maze, referre to as the Stone maze.
(§1) Male F344 rats 21-22 months old were obtained from Harlan-Sprague-Dawley under contract from the National Institute on Aging. They were maintained two per cage in a vivarium at the Gerontology Research Center under specific pathogen free conditions as characterized previously.
(§2) As previously described, the Stone maze is constructed of translucent plastic with a grid floor wired for scrambled foot shocks and is surrounded by gray walls to reduce availability of extra-maze cues. The only other apparatus was a straight runway (2 m) used for pretraining. Similar to the maze, the runway was also constructed of translucent plastic, and contained a grid floor wired for scrambled foot shocks, and was surrounded by gray walls.
(§3) […] On days 3-5 injections were made 30 min prior to behavioral testing.
Rats received training in the Stone maze scheduled as a 4-trial session during the morning and afternoon on days 4 and 5. During each trial, the rat had to locomote from a start box to a goal box through five maze segments each separated by guiiltine doors. The reinforcement contingency required the rat to negotiate each segment within 10 s to avoid the onset of mild foot shock (0.8 mA), which was terminated when the animal moved through the door into the next segment. After entry into succeeding segments, the door from the preceding segment was closed to prevent backtracking. Recorded as deviations from the correct pathway, errors were the primary dependent variable and were counted automatically by a series of infrared sensors connected to a microprocessor. Run time from the start box to the goal was also recorded automatically. The frequency and duration of foot shock were recorded on a mechanically operated clock.

[3] = test system: βAPP in human neuroblastoma cell lines; assay: Cellular and secreted βAPP levels by immunoblot; assay type: cell-based
Procedure: In further studies, the actions of selective AChE (Compounds 2, 3, (phenserine and tolserine) Table 1) and BChE (Compound 4 (cymserine), Table 1) inhibitors were assessed against human neuroblastoma cell lines. Both secreted levels, measured in the conditioned medium, and cellular levels of βAPP, measured in the cell lysates, were assessed and compared to levels achieved in untreated cells.
A methodology that can be employed to determine the ability of a selected compound to regulate cellular and secreted βAPP levels is as follows:
1 to 1.5×10^7 of each cell type (neuronal and non-neuronal) are cultured in their respective medium. Before adding drug, the cells are fed with media containing only 0.5% of FBS (low serum). The cells are then incubated either in the absence or presence of the test compound. Following incubation periods from 12 to 48 hours, the conditioned medium from each plate is collected and both it and the cells are centrifuged at 800 g. for 10 minutes. The conditioned medium is collected and the cells lysed in buffer containing 50 mM Tris-Cl (pH 8.0), 150 mM NaCl, 5 mM EDTA, 2 mM PMSF, 0.5% sodium deoxycholate, 1 ug/ml each of aprotonin, leupeptin and TLCK, and 0.1 ug/ml of pepstatin A. The cells are centrifuged for 10 min at 11,000 g at 4° C. Proteins of the supernatant solution (cell lysate) are measured by the Bradford dye-binding procedure (Bradford, Anal. Biochem. 72: 248-254, 1976).
For polyacrylamide gel electrophoresis and immunoblotting: in control experiments, an equivalent concentration of ethanol was used as a vehicle which is less than 1% in media. Compound dosages of from about 0.15 mM to 0.5 mM may be used. 100 uL of conditioned media or 30 ug of protein from the total cell lysate is separated on a 12% polyacrylamide gel containing SDS (SDS-PAGE). Immunoblot analysis was performed using the avidinbiotyinylated complex detection kit of Vector Laboratories as described by Lahiri, et al., J. Neurosci: Res. 12:777-787 (1994). The antisera employed is from the mAb22C11 clone (Boehringer Mannheim) which recognizes all mature forms of βAPP found in cell membranes as well as the carboxyltruncated soluble forms secreted into the conditioned media and the APP-like protein. Additionally, the mAb6E10 is employed which recognizes residues 1 to 28 of Aβ. […] Biotinylated secondary antibodies, horse anti-mouse and goat anti-rabbit (Boehringer Mannheim, and Vector Labs) are also used.

human plasma BChE = target: T1, human plasma BChE (Homo sapiens, UniProt P06276); assay: BChE inhibition, IC(50) by logit plot; assay type: biochemical; conditions: BChE compared with AChE
T1 construct: human plasma BChE; from tissue; host or cells: human plasma
T1 sequence (P06276 29-602): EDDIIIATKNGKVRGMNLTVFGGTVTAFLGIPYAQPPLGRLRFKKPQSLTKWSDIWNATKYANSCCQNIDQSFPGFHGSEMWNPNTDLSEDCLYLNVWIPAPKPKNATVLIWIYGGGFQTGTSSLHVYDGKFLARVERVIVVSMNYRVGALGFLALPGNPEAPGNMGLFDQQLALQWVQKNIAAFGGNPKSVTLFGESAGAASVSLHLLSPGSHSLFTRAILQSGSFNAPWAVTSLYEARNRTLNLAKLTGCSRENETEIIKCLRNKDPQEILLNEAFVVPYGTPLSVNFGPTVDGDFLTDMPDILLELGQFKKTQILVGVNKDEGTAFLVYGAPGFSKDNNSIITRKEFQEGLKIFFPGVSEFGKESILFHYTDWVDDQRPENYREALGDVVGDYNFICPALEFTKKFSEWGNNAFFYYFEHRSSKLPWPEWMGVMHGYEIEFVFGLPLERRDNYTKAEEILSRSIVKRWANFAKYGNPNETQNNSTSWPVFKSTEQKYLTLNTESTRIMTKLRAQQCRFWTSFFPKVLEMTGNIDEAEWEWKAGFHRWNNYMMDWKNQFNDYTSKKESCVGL
Procedure: The IC (50) values can be determined for such inhibitors using methods well known in the art. In such assay the pharmacological activity of each compound, as an IC (50), defined as the concentration, in nanomoles, required to inhibit 50% of the enzyme activity of AChE and BChE, is determined separately. For determination of IC (50) values, the enzyme activity of each concentration was expressed as a percent of that determined in the absence of each compound. This then was transformed into a logit format, where logit=In (% activity/[100-% activity]), and was plotted as a function of the log concentration of the compound. IC (50) values (i.e., logit=In (50/[100−5O]=0) were determined only from correlation coefficients (r^2) of less than −0.985 and when more than 50% inhibition was achieved from duplicate samples. The selectivity ratio is then determined by comparing the IC (50) values obtained for each compound with AChE to that for BChE.

secreted βAPP in CSF = assay: CSF βAPP in rats with or without forebrain cholinergic (nbM) lesions; assay type: in vivo, rat
Text: Cymserine, a representative of selective BChE inhibitors, additionally alters βAPP synthesis/processing in vivo.
A methodology that can be employed to determine the ability of a selected compound to regulate secreted βAPP levels in vivo is as follows:
For forebrain cholinergic system lesions, rats receive a unilateral subcortical lesion of the nucleus basalis of Meynert (nbM) using N-methyl-D-aspartate (NMDA) as an excitotoxin. In undertaking this, rats are anesthetized and placed in a stereotaxic apparatus with the upper incisor bar set level with the intra-aural line. A 33 gauge infusion cannula is lowered into two sites within the nbM on one side of the brain (AP bregma, ML −2.8 mm, DV −8.0 mm re: skull and AP bregma −0.8 mm, ML −3.0 mm, DV −7.8 mm, respectively). One microliter of a solution of 50 mM NMDA in PBS buffer (physiological pH) is slowly infused into each site. Controls for the lesion are vehicle alone and the contralateral side of NMDA treated animals.
Collection of CSF for analysis of βAPP levels is undertaken by withdrawal of an aliquot from the cistern magna of rats immediately following their death. Quantitation of βAPP is undertaken by immunoblot analysis utilizing mAb22C11.

[4] = test system: aged Fischer-344 (F344) rats; assay: One-way active avoidance pretraining in straight runway; assay type: in vivo, rat; conditions: for mean (s.e.m.) avoidances: pretraining, i.p. daily
Text: as §1, §2, §3
Beginning on day 2 rats were provided training in one-way active avoidance in the straight runway. On each trial, the rat had to locomote from the start box to the goal box within 10 s to avoid the onset of foot shock (0.8 mA). Rats received 10 trials on day 2 and 10 trials on day 3. Training was terminated when the rat met a performance criteria of eight avoidances within 10 consecutive trials within a maximum of 30 trials. Only rats meeting this criterion were tested in the Stone maze on the next day.

[5] = Brain and plasma time-dependent kinetics by HPLC; assay type: in vivo; conditions: rat
Procedure: Determination of the brain and plasma time-dependent kinetics of cymserine in the rats is undertaken by administering compound into the saphenous vein of anesthetized animals. Animals are killed by excess anesthetic at specific times and blood and brain samples are immediately taken. The blood is centrifuged (10,000 g, 2 min), plasma is collected and, together with the sample of brain, is stored at −80° C. Quantitation of concentrations of cymserine is undertaken by high performance liquid chromatography.

[6] = 1.0 mg kg, blocks 3 and 4 vs controls

For `Nc1c2c(nc3ccccc13)CCCC2` [tacrine], the “secretion of βAPP” value [1] is given as “reducing it”.
In the case of `CC(C)c1ccc(NC(=O)Oc2ccc3c(c2)[C@]2(C)CCN(C)[C@@H]2N3C)cc1` [Compound 4, cymserine], the “errors across all trials” value ([2]; 1 mg kg group vs controls) is reported as “significantly improved performance”, the shock duration ([2]; 1.0 mg kg, block 2) is reported as “significantly reduced” and the run time [2, 6] is reported as “significantly reduced”. For the same compound, the shock duration [2, 6] was “significantly reduced”, the shock frequency [2, 6] was “significantly reduced” and the “errors across all trials” value ([2]; 2 mg kg group vs controls) was “significantly improved performance”. For the same compound, the run time ([2]; 2.0 mg kg, block 4) was “significantly reduced”, the shock duration ([2]; 2.0 mg kg, block 4) was “significantly reduced” and the shock frequency ([2]; 2.0 mg kg, block 4) was “significantly reduced”. For the same compound, the “errors in the Stone maze” value ([2]; 3 mg kg dose) was “least effective”, the motoric side effects ([2]; 3 mg kg dose, a few rats) was “fine tremor” and the shock duration ([2]; 3.0 mg kg, block 4) was “significantly different from controls”. For the same compound, the “number of errors made in the Stone maze” value ([2]; all doses, compared with control condition) was “significantly reduced”, the “learning / cognitive performance of aged rats in the Stone maze” value ([2]; chronic treatment (5 days)) was “improves cognitive performance; also recorded: markedly improved” and the side effects ([2]; doses other than 3 mg kg) was “no side effects were noted”. For the same compound, the “cellular levels of βAPP” value ([3]; cell lysates, compared to untreated cells) was “dramatically reduced”, the “secreted βAPP levels” value ([3]; conditioned medium, compared to untreated cells) was “reduced” and the “βAPP levels assessed by mAb22C11 and 6E10” value ([3]; immunoblot, FIG. 2) was “dramatically reduce”. The “effect on other secretory proteins, such as HSP-70” value ([3]; immunoblot, selectivity control) was “without affecting”, the “selectivity of inhibitory action for BChE versus AChE” value (shortened to “selectivity of inhibitory action”) (human plasma BChE) was “selectivity for BChE inhibition” and the “levels of βAPP in CSF” value (secreted βAPP in CSF; animals without cholinergic lesions, cymserine alone versus pure control rats) was “reduced”. The “elevation of secreted βAPP in CSF” value (secreted βAPP in CSF; rats with forebrain cholinergic lesions, intraperitoneal twice daily for 7 days) was “blocks the elevation”, the “CSF βAPPγ levels” value (secreted βAPP in CSF; rats, FIG. 3 legend) was “reduces” and the “effects of drug treatment during pretraining” value ([4]; all dose groups vs control) was “No effects”. The “mean (s.e.m.) avoidances” value ([4]; 1 mg kg cymserine group) was 65% (2.8), the “mean (s.e.m.) avoidances” value ([4]; 2 mg kg cymserine group) was 63% (3.8) and the “mean (s.e.m.) avoidances” value ([4]; 3 mg kg cymserine group) was 61% (3.9). For the same compound, the “brain levels relative to plasma levels” value ([5]; 1 mg/kg by the intravenous route) was ~40 fold and the “crossing of the blood-brain barrier” value ([5]; systemic administration) was “readily cross the blood-brain barrier”.
In the case of `COP(=O)(OC)C(O)C(Cl)(Cl)Cl` (stereo not drawn) [metrifonate], the “secretion of βAPP” value [1] is given as “none of the other drugs, all classical anticholinesterases, produced a change”.
With `Cc1ccccc1NC(=O)Oc1ccc2c(c1)[C@]1(C)CCN(C)[C@@H]1N2C` [Compound 3, tolserine, reference compound] the “selectivity of inhibitory action” value (human plasma BChE) was “no selectivity for BChE”.
In the case of `CNC(=O)Oc1ccc2c(c1)[C@]1(C)CCO[C@@H]1N2C` [Compound 26, physovenine], the “selectivity of inhibitory action” value (human plasma BChE) is reported as “selectivity of inhibitory action for BChE”.
For `CNC(=O)Oc1ccc2c(c1)[C@]1(C)CCS[C@@H]1N2C` [Compound 22, thiaphysovenine], the “selectivity of inhibitory action” value (human plasma BChE) was “selectivity of inhibitory action for BChE”.
For `CNC(=O)Oc1ccc2c(c1)C1(C)CCN(C)C1N2Cc1ccccc1` (stereo not drawn) [Compound 30, N^8-benzylnorphysostigmine], the “selectivity of inhibitory action” value (human plasma BChE) was “potent and selective inhibitors of BChE”.
In the case of `C=CCN1CCC2(C)c3cc(OC(=O)NC)ccc3N(C)C12` (stereo not drawn) [Compound 20, N^1-allylnorphysostigmine], the “selectivity of inhibitory action” value (human plasma BChE) is reported as “provide BChE selectivity”.
In the case of `Nc1ccncc1N` [3,4 diaminopyridine], the “secretion of βAPP” value [1] is given as “none of the other drugs, all classical anticholinesterases, produced a change”.
In the case of `CNC(=O)Oc1ccc2c(c1)[C@]1(C)CCN(C)C1N2` (stereo partly drawn) [Compound 34, N^8-norphysostigmine], the “selectivity of inhibitory action” value (human plasma BChE) is reported as “potent and selective inhibitors of BChE”.
For 3′-methyl-carbamoyl eseroline, the “selectivity of inhibitory action” value (human plasma BChE) was “does not provide BChE selectivity”.
